Laboratory results from patent publication US12144344B2, “Compositions and methods for modulating root growth” (DUKE UNIVERSITY, priority 2018, dated 2024).

Experiments:
[1] = tested on: lateral root clock (pDR5:LUC); assay: Lateral root clock oscillation amplitude (pDR5:LUC reporter); format: in vivo, Arabidopsis thaliana; conditions: for amplitude of the lateral root clock relative to D15 treatment (rescue of D15 inhibition of lateral root initiation): roots treated with D15 for several days, then 10 μM apocarotenoid added, FIG. 4A
[2] = tested on: Arabidopsis thaliana; assay: Root phenotyping: primary root growth, lateral root capacity/branching, lateral root primordia; format: in vivo
[3] = tested on: Arabidopsis roots; assay: Merocyanine aldehyde RBP reporter fluorescence in Arabidopsis roots; format: in vivo, Arabidopsis thaliana; conditions: D15 treatment
[4] = tested on: Arabidopsis tissue; assay: Extraction, derivatization and HPLC-MS analysis of apocarotenoid levels in plant tissue upon D15 treatment; format: in vivo, Arabidopsis thaliana; conditions: D15 treated plants, whole plant; FIG. 2B
[5] = target: T1, CCD8 (Arabidopsis thaliana, UniProt Q8VY26); conditions: stated as known; cited from earlier work
T1 sequence (Q8VY26 57-570): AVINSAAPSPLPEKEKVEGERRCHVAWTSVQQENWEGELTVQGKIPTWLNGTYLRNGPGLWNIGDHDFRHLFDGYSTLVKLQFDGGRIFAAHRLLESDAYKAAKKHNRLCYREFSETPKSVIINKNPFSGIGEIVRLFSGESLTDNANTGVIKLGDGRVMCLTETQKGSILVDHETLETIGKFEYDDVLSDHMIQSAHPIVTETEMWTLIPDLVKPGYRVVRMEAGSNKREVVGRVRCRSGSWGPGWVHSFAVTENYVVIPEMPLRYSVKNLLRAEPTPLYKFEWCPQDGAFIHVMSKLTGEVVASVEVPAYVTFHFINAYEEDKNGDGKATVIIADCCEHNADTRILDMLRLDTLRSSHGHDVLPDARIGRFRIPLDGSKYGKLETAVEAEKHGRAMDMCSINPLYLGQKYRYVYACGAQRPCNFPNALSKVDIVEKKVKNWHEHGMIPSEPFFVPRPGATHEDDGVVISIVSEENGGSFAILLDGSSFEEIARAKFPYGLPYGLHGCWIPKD

[6] = co-treatment with 1 μM retinal and 125 μM D15, FIG. 4C
[7] = co-treatment with 500 nM Apo14 and D15, FIG. 4B

CC1=C(/C=C/C(C)=C/C=C/C(C)=C/C=O)C(C)(C)CCC1 [retinal, apo-16-carotenal]
amplitude of the lateral root clock relative to D15 treatment (rescue of D15 inhibition of lateral root initiation) [1]: significantly increased | rescue of D15 inhibition of lateral root development (lateral root branching) [2, 6]: fully rescue | rescue of D15 inhibition of primary root growth [2, 6]: fully rescue | primary root length ([2]; retinal alone, absence of D15): did not affect | number of lateral root primordia ([2]; retinal alone, absence of D15, FIG. 4D): significantly increase

CC1=C(/C=C/C(C)=C/C=C/C(C)=C/C=C/C=C(C)/C=C/C=O)C(C)(C)CCC1 [Apo-10-carotenal, apo-10-carotenal]
amplitude of the lateral root clock relative to D15 treatment (rescue of D15 inhibition of lateral root initiation) [1]: partially rescue

N-(4-fluorobenzyl)-methoxycinnamic hydroxamic acid [D15]
merocyanine aldehyde fluorescence in the root meristem [3]: reduced | number of merocyanine aldehyde pulses ([3]; elongation and differentiation zones, FIG. 1E): significantly reduced | levels of more hydrophilic apocarotenoids such as beta-cyclocitral and beta-ionone [4]: did not affect | levels of retinal as well as the related apocarotenoids [4]: reduced | amplitude of oscillations in pDR5:LUC marker line ([1]; D15-treated plants, FIG. 3): significantly decreased | root growth and lateral root organogenesis ([2]; D15 treatment): defects | CCD8 inhibition [5]: can inhibit

CC1=C(/C=C/C(C)=C/C=C/C(C)=C/C=C/C=C(\C)C=O)C(C)(C)CCC1 [apo-12-carotenal]
amplitude of the lateral root clock relative to D15 treatment (rescue of D15 inhibition of lateral root initiation) [1]: partially rescue

CC1=C(/C=C/C(C)=C/C=C/C(C)=C/C=C/C=O)C(C)(C)CCC1 [Apo14, apo-14-carotenal]
amplitude of the lateral root clock relative to D15 treatment (rescue of D15 inhibition of lateral root initiation) [1]: significantly increased | rescue of D15 inhibition of lateral root development (lateral root capacity) [2, 7]: fully rescue | rescue of D15 inhibition of primary root growth [2, 7]: fully rescue
